Assays:
Format in all cases: biochemical
human PDE11A = molecular target: T1, human PDE11A (Homo sapiens, UniProt Q9HCR9); assay: PDE enzyme assay using [3H]cGMP as substrate (SPA), PDE11A; conditions: human PDE11A 0.03 nM, [3H]cGMP 80 nM
T1 construct: full-length human PDE8A (NP_002596.1) and PDE11A (AAI12394.1); Flag (N); made in house; host or cells: Sf9 (baculovirus, pFastBac1)
Source text: (§1) The nucleotide sequences encoding full-length human PDE1A (NP_001003683.1), PDE1C (NP_005011.1), PDE5A (NP_001074.2), PDE7B (NP_061818.1) and PDE9A (NP_002597.1) are inserted into pFastBac1 (Invitrogen) vector with an N-terminal HIS tag. The nucleotide sequences encoding full-length human PDE4D (NP_006194.2) and catalytic domain (residue 641-1141) of PDE3A (NP_000912.3) are inserted into pFastBac1 (Invitrogen) vector with a C-terminal HIS tag. The nucleotide sequences encoding full-length human PDE8A (NP_002596.1) and PDE11A (AAI12394.1) are inserted into pFastBac1 (Invitrogen) vector with an N-terminal Flag tag. The nucleotide sequences encoding full-length human PDE10A (AAD32595.1) are inserted into pFastBac1 (Invitrogen) vector with a C-terminal Flag-His tag. […]
(§2) All 3′, 5′ cyclic nucleotide phosphodiesterase (PDE) enzyme activities are measured with a radiometric enzyme assay based on SPA detection system (scintillation proximity assay). […] Samples are read 12 hours later in a MICROBETA™ TRILUX® Counter. […] IC50 values are calculated by plotting the normalized data vs. log [compound] and fitting the data using a four parameter logistic equation.
(§3) The following phosphodiesterase activities are measured using [^3H]cGMP as reaction substrate: human PDE2A, human PDE5A, human PDE6A/6B, human PDE9A, human PDE10A and human PDE11A. […]

human PDE1A = molecular target: T2, human PDE1A (Homo sapiens, UniProt P54750); assay: Ca2+-calmodulin dependent PDE enzyme assay (SPA), PDE1A; conditions: human PDE1A 0.25 nM, [3H]cAMP 47 nM, calmodulin 6 U/ml; read-out: IC50 (nM) PDE 1A
T2 construct: encoding full-length human PDE1A (NP_001003683.1); HIS (N); made in house; host or cells: Sf9 (baculovirus, pFastBac1)
Source text: (§4) The nucleotide sequences encoding full-length human PDE1A (NP_001003683.1), PDE1C (NP_005011.1), PDE5A (NP_001074.2), PDE7B (NP_061818.1) and PDE9A (NP_002597.1) are inserted into pFastBac1 (Invitrogen) vector with an N-terminal HIS tag. The nucleotide sequences encoding full-length human PDE4D (NP_006194.2) and catalytic domain (residue 641-1141) of PDE3A (NP_000912.3) are inserted into pFastBac1 (Invitrogen) vector with a C-terminal HIS tag. The nucleotide sequences encoding full-length human PDE8A (NP_002596.1) and PDE11A (AAI12394.1) are inserted into pFastBac1 (Invitrogen) vector with an N-terminal Flag tag. The nucleotide sequences encoding full-length human PDE10A (AAD32595.1) are inserted into pFastBac1 (Invitrogen) vector with a C-terminal Flag-His tag. The nucleotide sequences encoding full-length human PDE6A (NP_000431.2) and PDE6B (AAH00249.1) are inserted into pFastBacDual (Invitrogen) vector with an N-terminal HIS tag and N-terminal Flag tag, respectively, for production of PDE6A/6B dimer. […]
as §2, with “equation. […]” for “equation.”

human PDE7B = molecular target: T3, human PDE7B (Homo sapiens, UniProt Q9NP56); assay: PDE enzyme assay using [3H]cAMP as substrate (SPA), PDE7B; conditions: human PDE7B 0.5 nM, [3H]cAMP 47 nM
T3 construct: full-length human PDE1A (NP_001003683.1), PDE1C (NP_005011.1), PDE5A (NP_001074.2), PDE7B (NP_061818.1); HIS (N); made in house; host or cells: Sf9 (baculovirus, pFastBac1)
T3 sequence (Q9NP56 whole entry): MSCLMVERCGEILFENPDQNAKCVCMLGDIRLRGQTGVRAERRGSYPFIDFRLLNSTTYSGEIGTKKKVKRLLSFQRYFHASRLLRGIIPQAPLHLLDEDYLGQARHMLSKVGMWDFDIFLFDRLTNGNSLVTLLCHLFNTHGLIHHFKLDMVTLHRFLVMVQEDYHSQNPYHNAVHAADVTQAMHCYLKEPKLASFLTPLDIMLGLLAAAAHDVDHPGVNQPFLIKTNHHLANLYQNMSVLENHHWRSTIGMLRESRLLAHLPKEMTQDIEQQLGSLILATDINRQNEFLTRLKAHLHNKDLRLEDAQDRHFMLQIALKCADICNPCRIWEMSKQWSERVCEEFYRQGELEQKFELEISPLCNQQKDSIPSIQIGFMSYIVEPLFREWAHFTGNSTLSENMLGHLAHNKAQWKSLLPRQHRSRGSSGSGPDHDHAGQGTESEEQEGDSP
Source text: as §1, §2
(§5) The following phosphodiesterase activities are measured using [^3H]cAMP as reaction substrate: human PDE3A (catalytic domain), human PDE4D, human PDE7B and human PDE8A. […]

human PDE2A = molecular target: T4, human PDE2A (Homo sapiens, UniProt O00408); assay: PDE enzyme assay using [3H]cGMP as substrate (SPA), PDE2A; conditions: human PDE2A 0.2 nM, [3H]cGMP 80 nM
T4 construct: full-length human PDE1B (NP_000915.1) and PDE2A (NP_002590.1); HIS (C); made in house; host or cells: Sf9 (pIEX4)
T4 sequence (O00408 whole entry): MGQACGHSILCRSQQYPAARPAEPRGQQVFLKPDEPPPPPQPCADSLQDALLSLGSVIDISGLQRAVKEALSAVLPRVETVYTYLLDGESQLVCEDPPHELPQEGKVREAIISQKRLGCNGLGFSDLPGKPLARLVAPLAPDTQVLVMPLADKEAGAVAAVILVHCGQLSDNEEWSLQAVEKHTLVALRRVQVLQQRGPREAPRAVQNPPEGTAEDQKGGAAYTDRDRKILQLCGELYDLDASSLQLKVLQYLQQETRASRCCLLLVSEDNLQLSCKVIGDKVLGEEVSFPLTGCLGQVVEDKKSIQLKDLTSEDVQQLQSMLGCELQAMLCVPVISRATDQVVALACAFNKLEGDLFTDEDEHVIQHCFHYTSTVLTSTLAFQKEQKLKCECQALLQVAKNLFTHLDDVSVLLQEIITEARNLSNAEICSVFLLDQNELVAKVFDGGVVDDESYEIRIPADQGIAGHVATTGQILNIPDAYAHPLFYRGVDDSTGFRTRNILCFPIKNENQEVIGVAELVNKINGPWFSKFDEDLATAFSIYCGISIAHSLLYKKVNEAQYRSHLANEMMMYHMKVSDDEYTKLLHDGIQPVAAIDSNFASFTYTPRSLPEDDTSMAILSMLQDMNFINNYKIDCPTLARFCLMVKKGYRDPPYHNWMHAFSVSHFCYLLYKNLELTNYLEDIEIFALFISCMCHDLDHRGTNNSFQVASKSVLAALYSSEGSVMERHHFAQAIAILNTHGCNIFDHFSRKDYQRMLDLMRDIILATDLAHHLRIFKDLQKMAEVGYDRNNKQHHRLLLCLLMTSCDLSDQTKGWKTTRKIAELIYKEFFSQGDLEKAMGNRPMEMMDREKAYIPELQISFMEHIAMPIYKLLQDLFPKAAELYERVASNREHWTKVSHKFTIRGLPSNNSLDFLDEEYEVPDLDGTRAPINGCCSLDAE
Source text: as §1, §2, §3

human PDE6A/6B = molecular target: T5, human PDE6A/6B (Homo sapiens, UniProt P16499+P35913); assay: PDE enzyme assay using [3H]cGMP as substrate (SPA), PDE6A/6B dimer; conditions: human PDE6AB dimer 5 nM, [3H]cGMP 80 nM; read-out: IC50 (nM) PDE 6AB
T5 construct: encoding full-length human PDE6A (NP_000431.2) and PDE6B (AAH00249.1); HIS (N); Flag (N); made in house; host or cells: Sf9 (baculovirus, pFastBacDual)
Source text: as §1, §2, §3

[1] = molecular target: T6, human PDE3A (catalytic domain) (Homo sapiens, UniProt Q14432); assay: PDE enzyme assay using [3H]cAMP as substrate (SPA), PDE3A; conditions: human PDE3A catalytic domain 0.008 nM, [3H]cAMP 47 nM
T6 construct: catalytic domain (residue 641-1141) of PDE3A (NP_000912.3); HIS (C); made in house; host or cells: Sf9 (baculovirus, pFastBac1)
T6 sequence (Q14432 641-1141): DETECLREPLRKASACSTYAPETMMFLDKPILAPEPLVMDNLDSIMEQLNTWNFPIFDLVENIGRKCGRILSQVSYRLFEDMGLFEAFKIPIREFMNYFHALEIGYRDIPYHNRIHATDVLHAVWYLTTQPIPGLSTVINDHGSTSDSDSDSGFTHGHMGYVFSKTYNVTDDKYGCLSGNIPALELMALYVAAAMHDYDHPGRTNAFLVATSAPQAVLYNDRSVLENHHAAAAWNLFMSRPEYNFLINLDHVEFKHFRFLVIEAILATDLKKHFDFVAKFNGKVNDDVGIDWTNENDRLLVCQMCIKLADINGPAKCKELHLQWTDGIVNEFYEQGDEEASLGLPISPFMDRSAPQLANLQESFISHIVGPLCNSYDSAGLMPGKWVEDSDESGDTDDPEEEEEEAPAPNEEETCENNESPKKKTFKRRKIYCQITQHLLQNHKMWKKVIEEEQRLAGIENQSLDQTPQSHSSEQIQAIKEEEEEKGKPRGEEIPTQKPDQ
Source text: as §1, §2, §5

human PDE1B = molecular target: T7, human PDE1B (Homo sapiens, UniProt Q01064); assay: Ca2+-calmodulin dependent PDE enzyme assay (SPA), PDE1B; conditions: human PDE1B 0.074 nM, [3H]cAMP 47 nM, calmodulin 6 U/ml; read-out: IC50 (nM) PDE 1B
T7 construct: encoding full-length human PDE1B (NP_000915.1); HIS (C); made in house; host or cells: Sf9 (pIEX4)
Source text: as §4
as §2, with “equation. […]” for “equation.”

human PDE1C = molecular target: T8, human PDE1C (Homo sapiens, UniProt Q14123); assay: Ca2+-calmodulin dependent PDE enzyme assay (SPA), PDE1C; conditions: human PDE1C 0.0012 nM, [3H]cAMP 47 nM, calmodulin 6 U/ml; read-out: IC50 (nM) PDE 1C
T8 construct: full-length human PDE1A (NP_001003683.1), PDE1C (NP_005011.1); HIS (N); made in house; host or cells: Sf9 (baculovirus, pFastBac1)
Source text: as §4
as §2, with “equation. […]” for “equation.”

human PDE5A = molecular target: T9, human PDE5A (Homo sapiens, UniProt O76074); assay: PDE enzyme assay using [3H]cGMP as substrate (SPA), PDE5A; conditions: human PDE5A 0.002 nM, [3H]cGMP 80 nM
T9 construct: full-length human PDE1A (NP_001003683.1), PDE1C (NP_005011.1), PDE5A (NP_001074.2); HIS (N); made in house; host or cells: Sf9 (baculovirus, pFastBac1)
Source text: as §1, §2, §3

human PDE8A = molecular target: T10, human PDE8A (Homo sapiens, UniProt O60658); assay: PDE enzyme assay using [3H]cAMP as substrate (SPA), PDE8A; conditions: human PDE8A 0.06 nM, [3H]cAMP 47 nM
T10 construct: encoding full-length human PDE8A (NP_002596.1); Flag (N); made in house; host or cells: Sf9 (baculovirus, pFastBac1)
Source text: as §1, §2, §5

human PDE9A = molecular target: T11, human PDE9A (Homo sapiens, UniProt O76083); assay: PDE enzyme assay using [3H]cGMP as substrate (SPA), PDE9A; conditions: human PDE9A 1 nM, [3H]cGMP 20 nM
T11 construct: full-length human PDE1A (NP_001003683.1), PDE1C (NP_005011.1), PDE5A (NP_001074.2), PDE7B (NP_061818.1) and PDE9A (NP_002597.1); HIS (N); made in house; host or cells: Sf9 (baculovirus, pFastBac1)
T11 sequence (O76083 whole entry): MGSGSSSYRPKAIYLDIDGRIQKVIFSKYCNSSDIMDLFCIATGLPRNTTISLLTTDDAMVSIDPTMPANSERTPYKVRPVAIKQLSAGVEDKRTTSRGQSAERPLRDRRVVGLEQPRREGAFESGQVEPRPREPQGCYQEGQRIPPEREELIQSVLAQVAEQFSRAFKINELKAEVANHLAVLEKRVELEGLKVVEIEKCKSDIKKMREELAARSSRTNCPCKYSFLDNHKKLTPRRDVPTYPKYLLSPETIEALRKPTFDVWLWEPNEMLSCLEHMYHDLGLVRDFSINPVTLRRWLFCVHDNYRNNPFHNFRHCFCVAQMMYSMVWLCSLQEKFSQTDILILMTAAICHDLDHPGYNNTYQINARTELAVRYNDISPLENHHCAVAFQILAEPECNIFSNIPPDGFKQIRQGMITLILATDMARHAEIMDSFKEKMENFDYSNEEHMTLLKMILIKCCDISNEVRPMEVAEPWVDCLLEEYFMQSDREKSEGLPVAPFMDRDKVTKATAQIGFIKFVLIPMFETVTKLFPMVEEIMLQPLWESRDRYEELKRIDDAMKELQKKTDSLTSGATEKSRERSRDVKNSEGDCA
Source text: as §1, §2, §3

human PDE10A = molecular target: T12, human PDE10A (Homo sapiens, UniProt Q9Y233); assay: PDE enzyme assay using [3H]cGMP as substrate (SPA), PDE10A; conditions: human PDE10A 0.03 nM, [3H]cGMP 80 nM
T12 construct: encoding full-length human PDE10A (AAD32595.1); Flag-His (C); made in house; host or cells: Sf9 (baculovirus, pFastBac1)
T12 sequence (Q9Y233 1-779 isoform Q9Y233-1): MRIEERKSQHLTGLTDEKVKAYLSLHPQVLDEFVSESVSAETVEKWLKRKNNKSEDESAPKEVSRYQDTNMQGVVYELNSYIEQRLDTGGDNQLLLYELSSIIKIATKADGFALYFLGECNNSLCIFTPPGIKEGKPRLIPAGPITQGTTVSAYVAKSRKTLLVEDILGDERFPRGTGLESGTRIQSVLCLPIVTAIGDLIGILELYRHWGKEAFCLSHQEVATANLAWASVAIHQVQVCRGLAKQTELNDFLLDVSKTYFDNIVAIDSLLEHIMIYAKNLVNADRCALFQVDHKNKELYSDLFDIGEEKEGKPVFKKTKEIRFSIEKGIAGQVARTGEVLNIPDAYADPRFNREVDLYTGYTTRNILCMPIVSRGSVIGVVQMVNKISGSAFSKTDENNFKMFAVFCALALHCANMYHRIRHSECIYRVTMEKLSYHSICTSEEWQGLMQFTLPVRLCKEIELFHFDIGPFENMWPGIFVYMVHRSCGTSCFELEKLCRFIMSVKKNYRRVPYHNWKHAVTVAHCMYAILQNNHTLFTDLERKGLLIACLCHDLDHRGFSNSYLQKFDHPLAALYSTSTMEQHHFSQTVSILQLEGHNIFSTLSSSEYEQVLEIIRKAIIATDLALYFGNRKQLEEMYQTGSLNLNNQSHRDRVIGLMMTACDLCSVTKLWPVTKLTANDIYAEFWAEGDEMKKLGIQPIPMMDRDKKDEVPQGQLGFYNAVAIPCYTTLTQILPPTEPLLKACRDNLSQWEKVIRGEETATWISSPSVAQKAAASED
Source text: as §1, §2, §3

human PDE4D = molecular target: T13, human PDE4D (Homo sapiens, UniProt Q08499); assay: PDE enzyme assay using [3H]cAMP as substrate (SPA), PDE4D; conditions: human PDE4D 0.021 nM, [3H]cAMP 47 nM
T13 construct: encoding full-length human PDE4D (NP_006194.2); HIS (C); made in house; host or cells: Sf9 (baculovirus, pFastBac1)
T13 sequence (Q08499 1-673 isoform Q08499-2): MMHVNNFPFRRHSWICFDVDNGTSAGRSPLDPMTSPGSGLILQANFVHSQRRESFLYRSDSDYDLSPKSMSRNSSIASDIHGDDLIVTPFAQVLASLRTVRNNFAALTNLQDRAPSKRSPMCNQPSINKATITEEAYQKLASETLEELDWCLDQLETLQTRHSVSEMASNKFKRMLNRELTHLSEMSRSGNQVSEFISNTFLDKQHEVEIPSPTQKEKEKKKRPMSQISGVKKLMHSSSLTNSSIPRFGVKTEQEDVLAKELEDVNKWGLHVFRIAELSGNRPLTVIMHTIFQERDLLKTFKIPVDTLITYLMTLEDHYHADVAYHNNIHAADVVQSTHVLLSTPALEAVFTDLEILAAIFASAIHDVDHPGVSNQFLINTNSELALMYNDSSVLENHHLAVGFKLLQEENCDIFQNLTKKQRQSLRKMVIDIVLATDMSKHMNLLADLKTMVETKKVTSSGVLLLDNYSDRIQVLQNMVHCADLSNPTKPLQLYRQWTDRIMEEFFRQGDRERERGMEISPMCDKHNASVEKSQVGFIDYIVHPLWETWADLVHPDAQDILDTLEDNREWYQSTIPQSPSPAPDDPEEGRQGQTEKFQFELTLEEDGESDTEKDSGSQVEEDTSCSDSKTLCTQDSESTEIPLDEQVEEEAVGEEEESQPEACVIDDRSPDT
Source text: as §1, §2, §5

T1 sequence (Q9HCR9 whole entry): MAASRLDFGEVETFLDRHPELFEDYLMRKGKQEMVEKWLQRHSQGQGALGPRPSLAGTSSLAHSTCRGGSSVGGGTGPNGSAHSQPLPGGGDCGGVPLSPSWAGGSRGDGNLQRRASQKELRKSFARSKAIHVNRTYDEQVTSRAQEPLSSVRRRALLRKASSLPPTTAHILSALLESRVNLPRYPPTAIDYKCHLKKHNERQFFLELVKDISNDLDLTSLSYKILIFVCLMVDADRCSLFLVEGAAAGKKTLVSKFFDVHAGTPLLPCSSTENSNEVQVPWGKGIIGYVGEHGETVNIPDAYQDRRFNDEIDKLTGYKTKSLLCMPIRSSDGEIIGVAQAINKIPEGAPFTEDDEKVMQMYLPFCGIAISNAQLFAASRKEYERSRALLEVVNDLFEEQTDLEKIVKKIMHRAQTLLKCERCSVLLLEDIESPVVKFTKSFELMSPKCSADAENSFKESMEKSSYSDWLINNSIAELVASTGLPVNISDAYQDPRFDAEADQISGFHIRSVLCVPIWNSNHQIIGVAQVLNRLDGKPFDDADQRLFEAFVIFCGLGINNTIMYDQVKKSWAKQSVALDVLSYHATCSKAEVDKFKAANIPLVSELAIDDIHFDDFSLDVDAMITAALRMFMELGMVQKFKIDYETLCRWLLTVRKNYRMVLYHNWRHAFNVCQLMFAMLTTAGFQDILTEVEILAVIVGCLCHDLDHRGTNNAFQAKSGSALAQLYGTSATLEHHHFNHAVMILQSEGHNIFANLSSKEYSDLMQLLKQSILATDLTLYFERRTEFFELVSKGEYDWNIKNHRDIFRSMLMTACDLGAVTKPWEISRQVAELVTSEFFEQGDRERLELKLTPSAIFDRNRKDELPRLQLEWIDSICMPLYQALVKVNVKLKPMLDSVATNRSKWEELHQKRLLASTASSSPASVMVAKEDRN

IC50 (human PDE11A): 389 ± 179 nM
IC50 (human PDE1A): 10.9 ± 2.6 nM
IC50 (human PDE7B): 4170 nM
IC50 (human PDE2A): > 10000 nM
IC50 (human PDE6A/6B): 2460 ± 247 nM
IC50 [1]: > 100000 nM
IC50 (human PDE1B): 16.3 ± 9.1 nM
IC50 (human PDE1C): 2.65 ± 0.9 nM
IC50 (human PDE5A): 3130 nM
IC50 (human PDE8A): > 10000 nM
IC50 (human PDE9A): > 10000 nM
IC50 (human PDE10A): 9340 nM
IC50 (human PDE4D): 11900 ± 1580 nM
Structure (SMILES): CCCCn1c(=O)c2nnc(C3(C)CC3)n2c2ncccc21 [Example 1, 5-butyl-9-(1-methylcyclopropyl)pyrido[3,2-e][1,2,4]triazolo[4,3-a]pyrazin-6(5H)-one]

Reference: US10138244B2, “Triazolopyrazinone derivative useful as a human PDE1 inhibitor” (Eli Lilly and Company, priority 2016, dated 2018)
